8 compounds from patent publication US20210009557A1, “ACYCLIC CXCR4 INHIBITORS AND USES THEREOF” (X4 Pharmaceuticals, Inc., priority 2017, published 2021) can be followed below.

In general, IC50 refers to the concentration at which inhibition is half-maximal. The Papp A→B is how fast a substance crosses the layer from the apical side. The low end stands for poor permeation, the high end for ready permeation. As usually defined, the Papp B→A is how fast a substance crosses the layer from the basolateral side. A word on the efflux ratio: it is a quotient of directional permeabilities that is used to spot active efflux.

One series concerns Caco-2 cells. The series can be described thus: in vitro. The following applies: Caco-2.
Series [1] deals with T1, CXCR-4 transfected U87 cell line (U87.CXCR4) (Homo sapiens, UniProt P61073).
T1 construct: expressed in transfected cells; host or cells: U87 cell line (U87.CXCR4)
T1 sequence (P61073 whole entry): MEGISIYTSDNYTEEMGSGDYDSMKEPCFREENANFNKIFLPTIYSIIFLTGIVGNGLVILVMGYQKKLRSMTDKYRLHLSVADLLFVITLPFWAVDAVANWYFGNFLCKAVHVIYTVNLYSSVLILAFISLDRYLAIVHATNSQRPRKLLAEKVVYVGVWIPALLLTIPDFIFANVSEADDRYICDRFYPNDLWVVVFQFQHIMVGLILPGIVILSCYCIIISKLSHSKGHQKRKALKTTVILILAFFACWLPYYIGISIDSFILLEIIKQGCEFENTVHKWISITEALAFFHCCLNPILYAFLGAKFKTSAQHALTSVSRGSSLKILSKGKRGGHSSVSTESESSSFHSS
The series can be described thus: Intracellular CXCL-12-induced calcium mobilization assay (FLIPR). The series is classed as cell-based. As to conditions: U87.CXCR4 cells; CXCL-12 25-50 ng/mL; compounds added 15 minutes before; read-out: IC50 CXCL-12 Ca2+ flux U87.CXCR4+.

In series [2] the target is T2, Jurkat cells expressing CXCR4 (Homo sapiens, UniProt P61073).
T2 construct: Jurkat cells expressing CXCR4; endogenous in cells; host or cells: Jurkat cells
T2 sequence (P61073 whole entry): as above
Description: Chemokine (CXCL12-AF647) binding inhibition assay. The following applies: CXCL12-AF647 25 ng/mL, read-out: IC50 CXCL-12 binding Jurkat.

Another series can be described thus: in vitro. The following applies: human, Caco-2, pH 7.4.

Where only a bound is given, the exact number is not on record here.

With Lucifer Yellow [reference compound], the “permeability for Lucifer Yellow” value in the series on Caco-2 cells is on record as “low permeability”.
Take `NC(=O)CCN(Cc1nccc2ccccc12)[C@H]1CCCc2cccnc21` [Compound I-49]: the IC50 in series [1] was in the range of 100 to 1000 nM. Moreover, the IC50 in series [2] was in the range of 0.01 to 100 nM. Moreover, in the series “in vitro”, the Papp A→B at 90 min, 10 μM lay within 5 to 10 ×10⁻⁶ cm/s; the basolateral-to-apical permeability (Papp B→A) at 90 min, 10 μM is > 10 ×10⁻⁶ cm/s; the efflux ratio at 90 min, 10 μM is 0.1 to 10.
For the compound `Cc1cccnc1CN(CCc1cnc[nH]1)Cc1ncccc1-c1ccccc1` [Compound I-57], in series [1], the IC50 fell in the range of 100 to 1000 nM. Further, the IC50 in series [2] was in the range of 0.01 to 100 nM. Also, in “in vitro”, the Papp A→B at 90 min, 10 μM was < 5 ×10⁻⁶ cm/s; the basolateral-to-apical permeability (Papp B→A) at 90 min, 10 μM was > 10 ×10⁻⁶ cm/s; the efflux ratio at 90 min, 10 μM was in the range of 0.1 to 10.
On the same counts, the results for `Clc1cccnc1CN(CCc1c[nH]cn1)[C@H]1CCCc2cccnc21` [Compound I-27, (S)—N-(2-(1H-imidazol-4-yl)ethyl)-N-((3-chloropyridin-2-yl)methyl)-5,6,7,8-tetrahydroquinolin-8-amine] are ≥ 1000 nM, 0.01 to 100 nM, 5 to 10 ×10⁻⁶ cm/s, > 10 ×10⁻⁶ cm/s and 0.1 to 10.
Taken in the same sequence, the figures for `NC(=O)CCN(Cc1ncccc1-c1ccccc1)[C@H]1CCCc2cccnc21` [Compound I-51] were ≥ 1000 nM, 0.01 to 100 nM, 5 to 10 ×10⁻⁶ cm/s, > 10 ×10⁻⁶ cm/s and 0.1 to 10.
Taken in the same sequence, the figures for `CC(c1ccccn1)N(CCC(N)=O)Cc1ccccn1` (stereo not drawn) [Compound I-11] were ≥ 1000 nM, 100 to 1000 nM, 5 to 10 ×10⁻⁶ cm/s, > 10 ×10⁻⁶ cm/s and 0.1 to 10.
For `Cc1cccnc1CN(CCc1cccc(O)n1)Cc1ncccc1C` [Compound I-59], the IC50 in series [1] is ≥ 1000 nM. Besides, in series [2], the IC50 is 100 to 1000 nM. Besides, in the series “in vitro”, the Papp A→B at 90 min, 10 μM is > 10 ×10⁻⁶ cm/s; the Papp B→A at 90 min, 10 μM is > 10 ×10⁻⁶ cm/s; the efflux ratio at 90 min, 10 μM fell in the range of 0.1 to 10.
As for `Clc1cccnc1CN(CCc1cnc[nH]1)Cc1nccs1` [Compound I-53], the IC50 in series [1] is ≥ 1000 nM. The half-inhibitory concentration (IC50) in series [2] was 100 to 1000 nM. Further, in the series “in vitro”, the Papp A→B at 90 min, 10 μM was > 10 ×10⁻⁶ cm/s; the Papp B→A at 90 min, 10 μM is > 10 ×10⁻⁶ cm/s; the efflux ratio at 90 min, 10 μM was 0.1 to 10.
